Consider 17 compounds from US10316017B2, “COT modulators and methods of use thereof” (Gilead Sciences, Inc., priority 2015, dated 2019).

The test system of assay [1] is TNFα production in LPS-stimulated human monocytes. The assay can be described thus: Cot Monocyte TNFα Cell Based Assay. Particulars: Homo sapiens, Monocyte, read-out: EC50 TNF. A digest of the protocol: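 TR-FRET read-out of total secreted TNFα, normalized as % control (unstimulated = 0%, LPS-stimulated = 100%). Cells (5,000/well) were exposed to compound 1 h at 37 °C, then to 50 pg/ml LPS for a further 4 h.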

The target of assay [2] is T1, human Cot catalytic domain (30-397 amino acids) (Homo sapiens, UniProt P41279).
T1 construct: Purified recombinant human Cot catalytic domain (30-397 amino acids) was purchased from Cama Biosciences; purchased Cama Biosciences (so in the source)
T1 sequence (P41279 30-397): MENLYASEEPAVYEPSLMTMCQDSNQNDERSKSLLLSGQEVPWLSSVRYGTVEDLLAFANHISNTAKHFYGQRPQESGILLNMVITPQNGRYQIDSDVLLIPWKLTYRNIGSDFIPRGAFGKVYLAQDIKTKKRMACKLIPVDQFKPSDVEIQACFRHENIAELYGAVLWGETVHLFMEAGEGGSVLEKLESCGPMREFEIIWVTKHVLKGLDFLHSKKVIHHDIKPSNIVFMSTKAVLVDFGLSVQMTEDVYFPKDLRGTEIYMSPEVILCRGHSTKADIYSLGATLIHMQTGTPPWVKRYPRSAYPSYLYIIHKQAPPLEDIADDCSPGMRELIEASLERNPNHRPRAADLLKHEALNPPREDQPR
In words: High Throughput Cot Biochemical Assay (KinEASE TR-FRET). Particulars: read-out: IC50 HTRF. Put shortly: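 TR-FRET readout: Eu-labeled phospho-specific antibody binds XL665-tagged STK3 peptide after phosphorylation by Cot (aa 30-397, 5 nM). Conditions: 400 μM ATP, 1 μM peptide, MOPS pH 7.0 buffer with MgOAc, DTT, BSA, NP-40, glycerol; 0.1% DMSO.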
(In general: Time-resolved FRET reads energy transfer from a long-lived donor to a nearby acceptor.)

[3] abbreviates: TNFα in LPS-stimulated human monocytes.
The mark [4] stands for this setting: Cot biochemical HTRF (KinEASE TR-FRET) assay.
[5] abbreviates: Cot KinEASE TR-FRET (HTRF) biochemical assay, 400 μM ATP.
[6] abbreviates: LPS-stimulated human monocytes, TNFα TR-FRET.
[7] abbreviates: Cot KinEASE TR-FRET, 400 μM ATP.

Structures are written as SMILES. Read-outs that look alike come from different tables or passages of the source.

The EC50 is the midpoint of the concentration-response curve. As a reminder, the IC50 is the midpoint of a concentration-inhibition curve. Consider `CC[C@@H](Nc1c(C#N)cnc2c(Cl)cc(N[C@@H](c3ccccc3)c3c[nH]nn3)cc12)c1ccccc1` [Example 627, 8-chloro-6-(((S)-phenyl(1H-1,2,3-triazol-4-yl)methyl)amino)-4-(((R)-1-phenylpropyl)amino) quinoline-3-carbonitrile], for which the concentration for a half-maximal effect (EC50) in assay [1] (setting [3]) turned out to be 456 nM. For the same compound, the half-inhibitory concentration (IC50) in assay [2] (setting [4]) is 16 nM.

As for `CCCCNc1c(C#N)cnc2c(Cl)cc(N[C@@H](c3ccc(Cl)cc3)c3cn(C4CCN(C(C)(C)C)CC4)nn3)cc12` [Example 683, (S)-6-(((1-(1-(tert-butyl)piperidin-4-yl)-1H-1,2,3-triazol-4-yl)(4-chlorophenyl)methyl)amino)-4-(butylamino)-8-chloroquinoline-3-carbonitrile], in assay [1] (setting [3]), the half-maximal effective concentration (EC50) was 7250 nM. In assay [2] (setting [4]), the IC50 was found to be 165 nM.

Take `[2H][C@](Nc1cc2c(NCC(C)(C)C)c(C#N)cnc2c(C)c1F)(c1ccc(F)cc1)c1cn(C2CC2)nn1` [Example 157, 6-(((1-cyclopropyl-1H-1,2,3-triazol-4-yl)(4-fluorophenyl)methyl-d)amino)-7-fluoro-8-methyl-4-(neopentylamino) quinoline-3-carbonitrile]: the EC50 in assay [1] (setting [3]) was over 10000 nM. Also, the concentration for half-maximal inhibition (IC50) in assay [2] (setting [5]) is 3740 nM.

For `N#Cc1cnc2c(Cl)cc(N[C@H](c3c[nH]nn3)c3ccccc3F)cc2c1Nc1cnc(F)c(F)c1` [Example 447, (S)-8-chloro-4-((5,6-difluoropyridin-3-yl)amino)-6-(((2-fluorophenyl) (1H-1,2,3-triazol-4-yl)methyl)amino)quinoline-3-carbonitrile], the concentration for a half-maximal effect (EC50) in assay [1] (setting [3]) came out at 1930 nM. The half-maximal inhibitory concentration (IC50) in assay [2] (setting [4]) is 23 nM.

In the case of `N#Cc1cnc2c(F)cc(N[C@@H](c3ccccc3)c3cn(C4CCNCC4)nn3)cc2c1Nc1ccc(F)c(Cl)c1` [Example 794, (S)-4-((3-chloro-4-fluorophenyl)amino)-8-fluoro-6-((phenyl(1-(piperidin-4-yl)-1H-1,2,3-triazol-4-yl)methyl)amino)quinoline-3-carbonitrile], the concentration giving a half-maximal response (EC50) in assay [1] (setting [3]) amounted to 441 nM. In addition, the half-maximal inhibitory concentration (IC50) in assay [2] (setting [4]) is 4 nM.

Take `CC(C)(C)N1CCC(n2cc([C@@H](Nc3cc(Cl)c4ncc(C#N)c(Nc5cccc(Cl)c5F)c4c3)c3ccc(Cl)cc3)nn2)CC1` [Example 739, (S)-6-(((1-(1-(tert-butyl)piperidin-4-yl)-1H-1,2,3-triazol-4-yl)(4-chlorophenyl)methyl)amino)-8-chloro-4-((3-chloro-2-fluorophenyl)amino)quinoline-3-carbonitrile]: in assay [1] (setting [3]), the EC50 worked out at 1100 nM. The IC50 in assay [2] (setting [4]) came to 22 nM.

Consider `N#Cc1cnc2c(Cl)cc(N[C@@H](c3ccc(F)cc3)c3cn(C4CC4)nn3)cc2c1NCc1cncs1` [Example 346, (S)-8-chloro-6-(((1-cyclopropyl-1H-1,2,3-triazol-4-yl)(4-fluorophenyl)methyl)amino)-4-((thiazol-5-ylmethyl)amino)quinoline-3-carbonitrile], for which, in assay [1] (setting [3]), the EC50 is 6100 nM. Also, the IC50 in assay [2] (setting [5]) was found to be 338 nM.

As to `CC[C@@H](Nc1c(C#N)cnc2c(Cl)cc(N[C@@H](c3ccc(F)cc3)c3cn(-c4cccnc4)nn3)cc12)c1ccccc1` [Example 391, 8-chloro-6-(((S)-(4-fluorophenyl)(1-(pyridin-3-yl)-1H-1,2,3-triazol-4-yl)methyl)amino)-4-(((R)-1-phenylpropyl)amino)quinoline-3-carbonitrile], the EC50 in assay [1] (setting [3]) stood at 214 nM. In addition, the concentration for half-maximal inhibition (IC50) in assay [2] (setting [5]) was found to be 17 nM.

`CC(C)(C)CNc1c(C#N)cnc2c(C#N)cc(N[C@H](c3cn(C4(C(N)=O)CC4)nn3)c3ccccc3Cl)cc12` [Example 957, (S)-1-(4-((2-chlorophenyl)((3,8-dicyano-4-(neopentylamino)quinolin-6-yl)amino)methyl)-1H-1,2,3-triazol-1-yl)cyclopropane-1-carboxamide]: in assay [1] (setting [6]), the EC50 is 170 nM. Besides, in assay [2] (setting [7]), the IC50 stood at 3 nM.

`Cc1c([C@H](Nc2cc(C#N)c3ncc(C#N)c(NCC(C)(C)C)c3c2)c2cn(C3(C(F)F)CC3)nn2)cccc1-n1ccnc1` [Example 1077]: the EC50 in assay [1] (setting [6]) was determined as 77 nM. The half-inhibitory concentration (IC50) in assay [2] (setting [7]) came to 2 nM.

Turning to `N#Cc1cnc2c(Cl)cc(N[C@@H](c3ccccc3)c3cn(-c4cccnc4)nn3)cc2c1Nc1ccc(F)c(Cl)c1` [Example 721, (S)-8-chloro-4-((3-chloro-4-fluorophenyl)amino)-6-((phenyl (1-(pyridin-3-yl)-1H-1,2,3-triazol-4-yl)methyl)amino)quinoline-3-carbonitrile], in assay [1] (setting [3]), the concentration giving a half-maximal response (EC50) turned out to be 470 nM. Moreover, the IC50 in assay [2] (setting [4]) turned out to be 21 nM.

In the case of `CC(C)(C)N1CCC(n2cc([C@@H](Nc3cc(Cl)c4ncc(C#N)c(Nc5cc(Cl)ccc5Cl)c4c3)c3ccccc3)nn2)CC1` [Example 527, (S)-6-(((1-(1-(tert-butyl)piperidin-4-yl)-1H-1,2,3-triazol-4-yl)(phenyl)methyl)amino)-8-chloro-4-((2,5-dichlorophenyl)amino) quinoline-3-carbonitrile], in assay [1] (setting [3]), the 50% effective concentration (EC50) came to 1360 nM. Moreover, the 50% inhibitory concentration (IC50) in assay [2] (setting [4]) was determined as 52 nM.

Consider `C[C@@H](Nc1c(C#N)cnc2c(Cl)cc(N[C@@H](c3ccccc3)c3cn(C4CCN(C(C)(C)C)CC4)nn3)cc12)c1ccc(F)cc1` [Example 634, 6-(((S)-(1-(1-(tert-butyl)piperidin-4-yl)-1H-1,2,3-triazol-4-yl)(phenyl)methyl)amino)-8-chloro-4-(((R)-1-(4-fluorophenyl)ethyl)amino) quinoline-3-carbonitrile], for which the concentration for a half-maximal effect (EC50) in assay [1] (setting [3]) is 3090 nM. For the same compound, the IC50 in assay [2] (setting [4]) is 30 nM.

On to `CC(C)(C)CNc1c(C#N)cnc2c(C#N)cc(N[C@H](c3cn(CC(N)=O)nn3)c3ccccc3Cl)cc12` [Example 963, (S)-2-(4-((2-chlorophenyl) ((3,8-dicyano-4-(neopentylamino)quinolin-6-yl)amino)methyl)-1H-1,2,3-triazol-1-yl)acetamide], for which, in assay [1] (setting [6]), the EC50 was 777 nM. For the same compound, the IC50 in assay [2] (setting [7]) was found to be 3 nM.

As to `CC[C@@H](Nc1c(C#N)cnc2c(Br)cc(N[C@@H](c3cccc(-c4ncco4)c3)c3cn(C4CC4)nn3)cc12)c1ccccc1` [Example 940, 8-bromo-6-(((S)-(1-cyclopropyl-1H-1,2,3-triazol-4-yl)(3-(oxazol-2-yl)phenyl)methyl)amino)-4-(((R)-1-phenylpropyl)amino) quinoline-3-carbonitrile], in assay [1] (setting [6]), the EC50 came out at 144 nM. For the same compound, the half-inhibitory concentration (IC50) in assay [2] (setting [7]) came out at 4 nM.

On to `N#Cc1cnc2c(Cl)cc(N[C@@H](c3ccccc3)c3cn(CCN4CCOCC4)nn3)cc2c1Nc1ccc(F)c(Cl)c1` [Example 737, (S)-8-chloro-4-((3-chloro-4-fluorophenyl)amino)-6-(((1-(2-morpholinoethyl)-1H-1,2,3-triazol-4-yl)(phenyl)methyl)amino)quinoline-3-carbonitrile], for which the EC50 in assay [1] (setting [3]) came out at 411 nM. In assay [2] (setting [4]), the IC50 came out at 21 nM.

For `CC(C)(C)N1CCC(n2cc([C@@H](Nc3cc(Cl)c4ncc(C#N)c(Nc5ccc(F)c(Cl)c5)c4c3)c3cccc(C(N)=O)c3)nn2)CC1` [Example 673, (S)-3-((1-(1-(tert-butyl)piperidin-4-yl)-1H-1,2,3-triazol-4-yl)((8-chloro-4-((3-chloro-4-fluorophenyl)amino)-3-cyanoquinolin-6-yl)amino)methyl)benzamide], the EC50 in assay [1] (setting [3]) is 1550 nM. Moreover, the IC50 in assay [2] (setting [4]) came to 2 nM.
